One may read the IC50 as the concentration at which inhibition is half-maximal.

The record followed here is patent US20240166641A1, “HETEROCYCLES AND USES THEREOF” (Kumquat Biosciences Inc., priority 2021, published 2024).

The target of assay [1] is T1, PTPN2 (Homo sapiens, UniProt P17706).
T1 sequence (P17706 1-415): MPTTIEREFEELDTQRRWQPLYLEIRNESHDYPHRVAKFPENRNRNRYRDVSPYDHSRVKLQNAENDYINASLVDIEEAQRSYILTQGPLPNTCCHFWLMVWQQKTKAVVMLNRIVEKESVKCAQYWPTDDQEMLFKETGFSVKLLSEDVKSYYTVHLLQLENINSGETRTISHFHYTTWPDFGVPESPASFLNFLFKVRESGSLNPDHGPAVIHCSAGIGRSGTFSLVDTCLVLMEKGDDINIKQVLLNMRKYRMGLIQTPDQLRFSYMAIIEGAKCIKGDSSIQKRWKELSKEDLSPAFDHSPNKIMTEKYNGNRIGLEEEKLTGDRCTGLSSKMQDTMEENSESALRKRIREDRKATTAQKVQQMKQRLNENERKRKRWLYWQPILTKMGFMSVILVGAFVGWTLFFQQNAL
The assay is described as follows: Phosphatase activity assay (Bio-Biochem-DiFMUP), PTPN2. Type of assay: biochemical. The settings on record: DiFMUP substrate, room temperature. The text has this: (§1) The selectivity and potency of a small molecule PTPN2 inhibitor as provided herein (e.g., a derivative of Formula I, II, III, IV; or sub-formulae thereof) against one or more protein tyrosine phosphatase (PTP) enzymes, and specifically against PTPN2, can be assessed in various ways. The one or more PTP enzymes comprise Mycobacterium protein tyrosine phosphatase A (mPTPA), Mycobacterium protein tyrosine phosphatase B (mPTPB), PTPN1 (i.e., PTP1B), PTPN2 (i.e., TC-PTP), SHP-1, SHP-2, FAP-1, Meg2, HePTP, Laforin, VHX, VHR, LMWPTP, Cdcl4A, LAR, CD45, PTPRG, a fragment thereof, a variant thereof, and a combination thereof. Selectivity and potency of a small molecule PTPN2 inhibitor is evaluated using a PTP activity inhibition assay. The assay is performed using a buffer comprising 50 millimolar (mM) Bis-Tris (pH=6.3), 2 mM EDTA, and 5 mM N,N′-dimethyl-N,N′-bis(mercaptoacetyl)hydrazine (DMH). The assay is performed using a phosphated substrate, e.g., 10 mM fluorescein diphosphate (FDP) that is stored at −20° C. Alternatively or in addition to, the assay is performed using 10 mM DiFMUP as a phosphated substrate. Each PTP enzyme is diluted in an enzyme dilution buffer comprising 50 mM Bis-Tris (pH=6.3), 2 mM EDTA, 5 mM DMH, 20% (vol./vol.) glycerol, and 0.01% (vol./vol.) Triton X-100.
(§2) The assay is carried out at room temperature in 96 well plates. A reaction mixture of 170 microliter (μL) of the assay buffer comprising 10 μM FDP or DiFMIUP is added to each well. A 10 μL volume of (i) a compound disclosed herein (e.g., PTPN2 inhibitor) dissolved in DMSO at one of 10 concentrations from a serial dilution or (ii) DMSO alone for control is added to each well. The reaction is initiated by adding 20 μL of a PTP enzyme (e.g., PTPN2) that is diluted in the enzyme dilution buffer. The phosphatase activity of the PTP enzyme is assessed by monitoring appearance of a fluorescent product (e.g., fluorescein monophosphate (FMP) from FDP, or 6,8-difluoro-7-hydroxyl-4-coumarin (DiFMU) from DiFMUP) continuously for about 15 to 30 minutes, using the SpectraMax® Gemini™ XPS Microplate Spectrofluorometer (Molecular Devices®) with excitation of 440 nm and emission at 530 nm (cutoff filter at 525 nm) for FMP and excitation at 360 nm and emission at 450 nm (cutoff filter at 435 nm) for DiFMU. The rate (e.g., the initial rate) of FMP or DiFMU formation is plotted against the concentration of the small molecule PTPN2 inhibitor, and the data is fitted (e.g., using a 4-parameter equation) to determine the inflection point of the fit as the IC50 of the small molecule PTPN2 inhibitor for a specific enzyme. Table 6 summarizes the IC50 values of compounds disclosed herein against PTPN2 and PTPN1.

Assay [2] addresses T2, PTP1B (Homo sapiens, UniProt P18031).
T2 sequence (P18031 1-435): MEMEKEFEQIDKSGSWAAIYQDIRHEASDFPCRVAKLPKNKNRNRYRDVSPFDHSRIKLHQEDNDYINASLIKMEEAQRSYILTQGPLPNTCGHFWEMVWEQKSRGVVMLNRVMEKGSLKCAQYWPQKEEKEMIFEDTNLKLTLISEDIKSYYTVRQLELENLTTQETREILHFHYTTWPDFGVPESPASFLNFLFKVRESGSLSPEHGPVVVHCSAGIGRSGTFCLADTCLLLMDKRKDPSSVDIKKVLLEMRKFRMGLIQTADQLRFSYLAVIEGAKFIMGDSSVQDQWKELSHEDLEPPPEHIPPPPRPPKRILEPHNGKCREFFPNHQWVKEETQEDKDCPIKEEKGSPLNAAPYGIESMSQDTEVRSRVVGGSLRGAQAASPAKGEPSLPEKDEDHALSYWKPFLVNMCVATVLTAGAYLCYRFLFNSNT
The assay is described as follows: Phosphatase activity assay (Bio-Biochem-DiFMUP), PTP1B. Type of assay: biochemical. The settings on record: DiFMUP substrate, room temperature.
Excerpt: as §1, §2

The test system of assay [3] is OT-1 cells. The assay is described as follows: T-cell activation: intracellular production of IFNγ and TNFα in exhausted OT-1 cells. The settings on record: 10 uM compound, OT-1 cells restimulated with 1 μM OVA, read-out: % TNFa + /IFNg + production in compound-treated cells (uM compound) relative to negative control (DMSO). Type of assay: cell-based. As to the method: 1*10^6 OT-1 cells are seeded in a 24well in a volume of 1 mL of RPMI/10% FCS, and activated with 10 nM OVA protein for 48 h. Cells are then split 1:4 into 96well plates after two washes in warm media. To induce exhaustion, cells are then expanded for 3 days in the presence of vehicle control or a compound described herein (e.g., PTPN2 inhibitor) various concentrations, as well as 5 ng/ml IL-7 and 5 ng/ml IL-15, with the addition of fresh OVA on each day. After this point, cells are treated with Brefeldin A and restimulated with 1 μM of OVA for 4-6h, and cells are stained to assess production of IFNγ and TNFα intracellularly by flow cytometry. The results are shown as increase in percentage production of IFNγ and TNFα in cells treated with an exemplified compound at 10 uM, relative to a negative control (DMSO) of cells without being treated with the compound but merely DMSO (a solvent in which exemplified compounds are dissolved). See Table 10 below summarizes percentage increase in IFNγ and TNFα intracellular production in cells treated with an exemplified compound (at 10 uM) or without it, relative to a negative control (DMSO).

Assay [4] concerns B16F10 mouse melanoma cells. The assay is described as follows: MHC expression associated with IFNγ signaling, flow cytometry. Type of assay: cell-based. The settings on record: B16-F10, 3 uM compound, 48 hours, normalized to DMSO/with IFNγ control, read-out: % MHC in cells treated with Compound at 3 uM relative to negative control (DMSO). How it is done: B16F10 mouse melanoma cells (ATCC Cat #CRL-6475, Manassas, VA) are seeded at approximately a density of 500 cells per well in a 384-well clear bottom plate (Corning Cat #3765, Corning, 5 NY) in 25 μL total volume of DMEM+10% FBS (Sigma Cat #D6429 and Sigma Cat #F4135, St. Louis, MO). Cells are allowed to adhere overnight at 37° C.+5% CO2. On the following day, 12.5 μL of mouse IFNγ (RD systems Cat #485-MI/CF, Minneapolis, MN) is added to half of the plate (columns 13-24) at a concentration of 2 ng/mL for a final assay concentration of 0.5 ng/mL of IFNγ. Media only (12.5 μL of DMEM+10% FBS) is added to the remainder of the 10 plate (columns 1-12). Next, compounds resuspended in DMSO (Sigma Cat #D2650) at 100 mM are diluted in semi-log dilutions in DMSO ranging from 100 mM to 0.001 mM and DMSO only controls are included. The compound/DMSO dilutions are further diluted 1:250 in DMEM+10% FBS, and 12.5 μL of these dilutions are added in triplicates to cells of both treatment arms (with and without IFNγ). Compounds are only dosed in the inner 240 wells, avoiding the outer 2-well perimeter of the plate to minimize edge effects. Finally, the plate is loaded into an IncuCyte® S3 Live Cell Analysis System (Essen Bioscience-Sartorius, Ann Arbor, MI) maintained in a 37° C.+5% CO2 incubator, allowed to equilibrate for 2 hours, and treated for 48 hours. MHC levels are measured by flow cytometry using a FITC anti-mouse H-2kb antibody (clone AF6-88.5), and levels are normalized based on DMSO/with IFNγ control. Table 7 below summarizes the percentage in MHC expression in cells treated with or without compounds disclosed herein at a specified concentration.
(In flow cytometry, cells or beads pass a laser one at a time.)

Consider `CC(C)CCNc1ccc2cc(O)c(N3CC(=O)NS3(=O)=O)cc2n1` [Compound 113, 5-(6-hydroxy-2-(isopentylamino)quinolin-7-yl)-1,2,5-thiadiazolidin-3-one 1,1-dioxide], for which the IC50 in assay [1] and in assay [2] was ≤ 1 µM throughout. Further, the activity at 10 µM in assay [3] worked out at 210%.
Take `CC(C)(C)CCOc1ccc2cc(O)c(N3CC(=O)NS3(=O)=O)c(F)c2n1` [Compound 150]: the IC50 in assay [1] and in assay [2] was ≤ 1 µM in each case. In addition, the activity at 10 µM in assay [3] is 260%.
For the molecule `CC(C)CCCc1cc2c(F)c(N3CC(=O)NS3(=O)=O)c(O)cc2n(C)c1=O` [Compound 190], the IC50 in assay [1] and in assay [2] was ≤ 1 µM in each case. The activation at 3 µM in assay [4] fell in the range of 1 to 10%.
As for `O=C1CN(c2c(O)cc3ccc(OCCc4ccccc4)nc3c2F)S(=O)(=O)N1` [Compound 151], the IC50 in assay [1] and in assay [2] was ≤ 1 µM throughout. Besides, the activation at 3 µM in assay [4] lay within 1 to 10%. Besides, the activity at 10 µM in assay [3] was determined as 227%.
With `O=C1CN(c2c(O)cc3ccc(OCC4CCCOC4)nc3c2F)S(=O)(=O)N1` (stereo not shown) [Compound 144], the IC50 in assay [1] and in assay [2] was ≤ 1 µM throughout. For the same molecule, in assay [4], the activation at 3 µM is > 10%. Besides, in assay [3], the activity at 10 µM was 251%.
`COC(C)(C)CCOc1ccc2cc(O)c(N3CC(=O)NS3(=O)=O)c(F)c2n1` [Compound 149]: the half-maximal inhibitory concentration (IC50) in assay [1] and in assay [2] was ≤ 1 µM each time. Further, the activation at 3 µM in assay [4] was > 10%. The activity at 10 µM in assay [3] is 207%.
For the molecule `N#CCCCOc1ccc2cc(O)c(N3CC(=O)NS3(=O)=O)c(F)c2n1` [Compound 155], the IC50 in assay [1] and in assay [2] was ≤ 1 µM each time. For the same molecule, the activation at 3 µM in assay [4] was > 10%.
For `O=C1CN(c2c(O)cc3ccc(OCCC4CCCC4)nc3c2F)S(=O)(=O)N1` [Compound 158], the IC50 in assay [1] and in assay [2] was ≤ 1 µM in each case. For the same molecule, in assay [4], the activation at 3 µM is > 10%. Moreover, in assay [3], the activity at 10 µM amounted to 152%.
For `O=C1CN(c2c(O)cc3ccc(OCCc4ccc(F)cc4)nc3c2F)S(=O)(=O)N1` [Compound 204, 5-(8-fluoro-2-(4-fluorophenethoxy)-6-hydroxyquinolin-7-yl)-1,2,5-thiadiazolidin-3-one 1,1-dioxide], the IC50 in assay [1] and in assay [2] was ≤ 1 µM in each case. Also, the activation at 3 µM in assay [4] lay within 1 to 10%. For the same molecule, in assay [3], the activity at 10 µM was 430%.
Turning to `CC(C)CCNc1cc2cc(N3CC(=O)NS3(=O)=O)c(O)cc2n(C)c1=O` [Compound 120], the IC50 in assay [1] and in assay [2] was ≤ 1 µM each time. Besides, in assay [3], the activity at 10 µM worked out at 194%.
On to `CC(C)CCNc1cc2c(F)c(N3CC(=O)NS3(=O)=O)c(O)cc2n(C)c1=O` [Compound 186], for which the IC50 in assay [1] and in assay [2] was ≤ 1 µM throughout. The activation at 3 µM in assay [4] is > 10%.
As to `O=C1CN(c2c(O)cc3ccc(OCC4CCOC4)nc3c2F)S(=O)(=O)N1` (stereo not shown) [Compound 139], the IC50 in assay [1] and in assay [2] was ≤ 1 µM each time. Besides, in assay [4], the activation at 3 µM is > 10%. Besides, in assay [3], the activity at 10 µM stood at 226%.
On to `CC(C)CCNC(=O)c1cc2c(F)c(N3CC(=O)NS3(=O)=O)c(O)cc2s1` [Compound 130, 5-(1,1-dioxido-4-oxo-1,2,5-thiadiazolidin-2-yl)-4-fluoro-6-hydroxy-N-isopentylbenzo[b]thiophene-2-carboxamide], for which the IC50 in assay [1] and in assay [2] was ≤ 1 µM throughout. In assay [4], the activation at 3 µM was > 10%.
On to `CC(C)(C)CCOc1ccc2cc(O)c(N3CC(=O)NS3(=O)=O)cc2n1` [Compound 183], for which the 50% inhibitory concentration (IC50) in assay [1] and in assay [2] was ≤ 1 µM throughout. For the same molecule, in assay [4], the activation at 3 µM was < 1%. In assay [3], the activity at 10 µM turned out to be 162%.
As for `Cn1c(=O)c(NCc2ccccc2)cc2c(F)c(N3CC(=O)NS3(=O)=O)c(O)cc21` [Compound 180], the IC50 in assay [1] and in assay [2] was ≤ 1 µM throughout.
With `Cn1c(=O)c(C#N)cc2cc(N3CC(=O)NS3(=O)=O)c(O)cc21` [Compound 161], the IC50 in assay [1] and in assay [2] was > 10 µM throughout.
As to `Cn1c(=O)c(NCCCCC#N)cc2cc(N3CC(=O)NS3(=O)=O)c(O)cc21` [Compound 193], the IC50 in assay [1] and in assay [2] was ≤ 1 µM each time.
